For orientation: IC50 means the concentration at which inhibition is half-maximal. Low values mean higher potency, high ones lower potency. Usually melting point stands for the temperature of the solid-liquid transition.

In series [1] the target is PDE4. Kind of series: Inhibition of PDE4 (cytosolic enzyme preparation from U937 line), compared with rolipram. The class given is biochemical, human. The following applies: PDE4 enzyme preparation obtained from the U937 line.

For the compound `CCCn1nc(C(C)CC)c2c1C(=O)NCC(c1ccccc1)=N2` (racemic) [Example 70, (±)3-sec-Butyl-5-phenyl-1-propyl-6,7-dihydro-1H-pyrazolo-[4,3-e][1,4]diazepin-8-one], the IC50 in series [1] came to 11 nM.

`CCC(C)c1nn(CC)c2c1N=C(c1ccc(OC)cc1)CNC2=O` (racemic) [Example 89, (±)3-sec-Butyl-1-ethyl-5-(4-methoxyphenyl)-6,7-dihydro-1H-pyrazolo[4,3-e][1,4]diazepin-8-one] registered a melting point of 50 °C. Further, inhibition in series [1] was half-maximal at 33 nM (IC50).

Compound `CCCn1nc(C(C)CC)c2c1C(=O)NCC(c1ccc(OC)cc1)=N2` (racemic) [Example 90, (±)3-sec-Butyl-5-(4-methoxyphenyl)-1-propyl-6,7-dihydro-1H-pyrazolo[4,3-e][1,4]diazepin-8-one] gave a melting point of 85 °C. Further, the midpoint of inhibition in series [1], the IC50, lay at 193 nM.

In series [1], `CCn1nc(-c2ccccc2)c2c1C(=O)NCC(c1ccccc1)=N2` [Example 4, 1-Ethyl-3,5-diphenyl-6,7-dihydro-1H-pyrazolo[4,3-e][1,4]diazepin-8-one] yielded an IC50 of 8.4 nM.

In turn, `CCOC(=O)c1nn(CC)c2c1N=C(c1ccccc1)CNC2=O` [Example 5, Ethyl 1-ethyl-8-oxo-5-phenyl-1,6,7,8-tetrahydropyrazolo-[4,3-e][1,4]diazepin-3-carboxylate] registered an IC50 in series [1] of 390 nM.

The compound `CCn1nc(C)c2c1C(=O)NCC(c1ccc(Br)cc1)=N2` [Example 7, 5-(4-Bromophenyl)-1-ethyl-3-methyl-6,7-dihydro-1H-pyrazolo[4,3-e][1,4]diazepin-8-one] returned a melting point of 223 °C. In addition, inhibition in series [1] was half-maximal at 130 nM (IC50).

On to `CCn1nc(C)c2c1C(=O)NCC(c1ccc3ccccc3c1)=N2` [Example 8, 1-Ethyl-3-methyl-5-naphth-2-yl-6,7-dihydro-1H-pyrazolo[4,3-e][1,4]diazepin-8-one], for which the melting point is 193 °C. For the same compound, the half-maximal inhibitory concentration (IC50) in series [1] came to 210 nM.

Turning to `CCn1nc(C)c2c1C(=O)NCC(c1sccc1Cl)=N2` [Example 9, 5-(3-Chlorothien-2-yl)-1-ethyl-3-methyl-6,7-dihydro-1H-pyrazolo[4,3-e][1,4]diazepin-8-one], the melting point came out at 213 °C. The IC50 in series [1] was found to be 150 nM.

With `CCn1nc(C)c2c1C(=O)NCC(CCC(=O)OC)=N2` [Example 10, Methyl 3-(1-ethyl-3-methyl-8-oxo-1,6,7,8-tetrahydro-pyrazolo[4,3-e][1,4]diazepin-5-yl)propanoate], inhibition in series [1] was half-maximal at 1290 nM (IC50).

Regarding `CCn1nc(C)c2c1C(=O)NCC(c1ccc(Cl)cc1)=N2` [Example 11, 5-(4-Chlorophenyl)-1-ethyl-3-methyl-6,7-dihydro-1H-pyrazolo[4,3-e][1,4]diazepin-8-one], the melting point turned out to be 215 °C. For the same compound, in series [1], the 50% inhibitory concentration (IC50) amounted to 120 nM.

In turn, `CCn1nc(C)c2c1C(=O)NCC(c1ccc(F)cc1)=N2` [Example 13, 1-Ethyl-5-(4-fluorophenyl)-3-methyl-6,7-dihydro-1H-pyrazolo[4,3-e][1,4]diazepin-8-one] displayed a melting point of 174 °C. Besides, the IC50 in series [1] is 130 nM.

As for `CCn1nc(C)c2c1C(=O)NCC(c1cccc(Br)c1)=N2` [Example 14, 5-(3-Bromophenyl)-1-ethyl-3-methyl-6,7-dihydro-1H-pyrazolo-[4,3-e][1,4]diazepin-8-one], the melting point is 173 °C. Also, half-maximal inhibition in series [1] (IC50) required 81 nM.

In the case of `CCn1nc(C)c2c1C(=O)NCC(c1cccc(OC)c1)=N2` [Example 18, 1-Ethyl-5-(3-methoxyphenyl)-3-methyl-6,7-dihydro-1H-pyrazolo[4,3-e][1,4]diazepin-8-one], the melting point is 120 °C. Besides, inhibition in series [1] was half-maximal at 100 nM (IC50).

In turn, `CCn1nc(C)c2c1C(=O)NCC(c1ccccc1N)=N2` [Example 19, 5-(2-Aminophenyl)-1-ethyl-3-methyl-6,7-dihydro-1H-pyrazolo[4,3-e][1,4]diazepin-8-one] gave a melting point of 156 °C. Moreover, in series [1], the IC50 came to 87 nM.

For the compound `CCn1nc(C)c2c1C(=O)NCC(c1ccccc1OC)=N2` [Example 20, 1-Ethyl-5-(2-methoxyphenyl)-3-methyl-6,7-dihydro-1H-pyrazolo[4,3-e][1,4]diazepin-8-one], the melting point was found to be 214 °C. Half-maximal inhibition in series [1] (IC50) required 99 nM.

`Cc1nn(CC(F)(F)F)c2c1N=C(c1ccccc1)CNC2=O` [Example 30, 3-Methyl-5-phenyl-1-(2.2.2-trifluoroethyl)-6,7-dihydro-1H-pyrazolo[4,3-e][1,4]diazepin-8-one]: inhibition in series [1] was half-maximal at 300 nM (IC50).

For `CCn1nc(C(C)C)c2c1C(=O)NCC(c1ccc(N3CCCC3)cc1)=N2` [Example 38, 1-Ethyl-3-isopropyl-5-(4-pyrrolidin-1-yl-phenyl)-6,7-dihydro-1H-pyrazolo[4,3-e][1,4]diazepin-8-one], the IC50 in series [1] was 650 nM.

In series [1], `CCCn1nc(C(C)C)c2c1C(=O)NCC(c1ccc(OC)cc1OC)=N2` [Example 43, 5-(2,4-Dimethoxyphenyl)-3-isopropyl-1-propyl-6,7-dihydro-1H-pyrazolo[4,3-e][1,4]diazepin-8-one] had an IC50 of 48 nM.

As to `CCn1nc(C(C)(C)C)c2c1C(=O)NCC(C(C)(C)C)=N2` [Example 44, 3,5-Di-tert-butyl-1-ethyl-6,7-dihydro-1H-pyrazolo[4,3-e][1,4]diazepin-8-one], the IC50 in series [1] was determined as 1.1 nM.

In series [1], `CCn1nc(C(C)(C)C)c2c1C(=O)NCC(c1ccc(OC)cc1OC)=N2` [Example 47, 3-tert-Butyl-5-(2,4-dimethoxyphenyl)-1-ethyl-6,7-dihydro-1H-pyrazolo[4,3-e][1,4]diazepin-8-one] came in with a 50% inhibitory concentration (IC50) of 21 nM. Compared with the last compound, the IC50 is about 19-fold higher.

`CCCn1nc(C(C)(C)C)c2c1C(=O)NCC(C(C)(C)C)=N2` [Example 48, 3,5-Di-tert-butyl-1-propyl-6,7-dihydro-1H-pyrazolo[4,3-e][1,4]diazepin-8-one] returned an IC50 in series [1] of 8.1 nM. This IC50 lies about 2.6-fold lower than the previous one.

In series [1], `CCCn1nc(C(C)(C)C)c2c1C(=O)NCC(c1ccc(C)cc1)=N2` [Example 49, 3-tert-Butyl-1-propyl-5-p-tolyl-6,7-dihydro-1H-pyrazolo[4,3-e][1,4]diazepin-8-one] displayed a half-inhibitory concentration (IC50) of 32 nM.

In turn, `CCCn1nc(C(C)(C)C)c2c1C(=O)NCC(c1ccc(C#N)cc1)=N2` [Example 50, 4-(3-tert-Butyl-8-oxo-1-propyl-1,6,7,8-tetrahydro-1H-pyrazolo[4,3-e][1,4]diazepin-5-yl)benzonitrile] yielded an IC50 in series [1] of 16 nM.

For the compound `CCCn1nc(C(C)(C)C)c2c1C(=O)NCC(c1ccc(OC)cc1OC)=N2` [Example 51, 3-tert-Butyl-5-(2,4-dimethoxyphenyl)-1-propyl-6,7-dihydro-1H-pyrazolo[4,3-e][1,4]diazepin-8-one], 60 nM corresponded to half-maximal inhibition in series [1] (IC50).

Compound `CCn1nc(C)c2c1C(=O)NCC(c1ccc(N(S(=O)(=O)c3ccccc3)S(=O)(=O)c3ccccc3)cc1)=N2` [Example 56, N-[4-(1-Ethyl-3-methyl-8-oxo-1,6,7,8-tetrahydro-pyrazolo[4,3-e][1,4]diazepin-5-yl)phenyl]-(phenylsulphonyl)benzenesulphonamide] came in with an IC50 in series [1] of 500 nM.

With `Cc1nn(CC2CC2)c2c1N=C(c1ccccc1)CNC2=O` [Example 58, 1-Cyclopropylmethyl-3-methyl-5-phenyl-6,7-dihydro-1H-pyrazolo[4,3-e][1,4]diazepin-8-one], in series [1], the IC50 came to 140 nM.

Turning to `C=CCn1nc(C)c2c1C(=O)NCC(c1ccccc1)=N2` [Example 59, 1-Allyl-3-methyl-5-phenyl-6,7-dihydro-1H-pyrazolo[4,3-e][1,4]diazepin-8-one], the half-inhibitory concentration (IC50) in series [1] was found to be 510 nM.

As to `CCn1nc(C(C)C)c2c1C(=O)NCC(c1ccc(C(F)(F)F)cc1)=N2` [Example 61, 1-Ethyl-3-isopropyl-5-(4-trifluoromethylphenyl)-6,7-dihydro-1H-pyrazolo[4,3-e][1,4]diazepin-8-one], in series [1], the concentration for half-maximal inhibition (IC50) is 7.9 nM.

Compound `CCn1nc(C)c2c1C(=O)NCC(c1ccc(C(F)(F)F)cc1)=N2` [Example 62, 1-Ethyl-3-methyl-5-(4-trifluoromethylphenyl)-6,7-dihydro-1H-pyrazolo[4,3-e][1,4]diazepin-8-one] displayed an IC50 in series [1] of 260 nM.

With `CCn1nc(C2CCCCC2)c2c1C(=O)NCC(c1ccccc1)=N2` [Example 72, 3-Cyclohexyl-1-ethyl-5-phenyl-6,7-dihydro-1H-pyrazolo-[4,3-e][1,4]diazepin-8-one], in series [1], the IC50 was 1.8 nM.

As to `CCCn1nc(C2CCCCC2)c2c1C(=O)NCC(c1ccccc1)=N2` [Example 74, 3-Cyclohexyl-5-phenyl-1-propyl-6,7-dihydro-1H-pyrazolo-[4,3-e][1,4]diazepin-8-one], inhibition in series [1] was half-maximal at 5.4 nM (IC50).

Regarding `CCn1nc(CC2CCCCC2)c2c1C(=O)NCC(c1ccncc1)=N2` [Example 76, 3-Cyclohexylmethyl-1-ethyl-5-pyrid-4-yl-6,7-dihydro-1H-pyrazolo[4,3-e][1,4]diazepin-8-one], in series [1], the IC50 stood at 8.2 nM. Compared with the last compound, the IC50 is about 1.5-fold higher.

In the case of `CCCn1nc(CC2CCCCC2)c2c1C(=O)NCC(c1ccccc1)=N2` [Example 77, 3-Cyclohexylmethyl-5-phenyl-1-propyl-6,7-dihydro-1H-pyrazolo[4,3-e][1,4]diazepin-8-one], in series [1], the IC50 worked out at 210 nM.

Turning to `CCCn1nc(CC2CCCCC2)c2c1C(=O)NCC(c1ccncc1)=N2` [Example 78, 3-Cyclohexylmethyl-1-propyl-5-pyrid-4-yl-6,7-dihydro-1H-pyrazolo[4,3-e][1,4]diazepin-8-one], in series [1], the half-maximal inhibitory concentration (IC50) came out at 21 nM. This IC50 is about 10-fold lower than that of the compound before.

For the compound `CCn1nc(CC2CCCCC2)c2c1C(=O)NCC(c1ccccc1)=N2` [Example 79, 3-Cyclohexylmethyl-1-ethyl-5-phenyl-6,7-dihydro-1H-pyrazolo[4,3-e][1,4]diazepin-8-one], 11 nM corresponded to half-maximal inhibition in series [1] (IC50). This IC50 lies about 1.9-fold lower than the previous one.

With `CCn1nc(C)c2c1C(=[SH]c1ccc(OC)cc1)NCC=N2` [Example 83, 1-Ethyl-S-(4-methoxyphenyl)-3-methyl-6,7-dihydro-1H-pyrazolo[4,3-e][1,4]diazepin-8-thione], the melting point came to 209 °C.

In the case of `CCOCc1nn(CC)c2c1N=C(c1ccccc1)CNC2=O` [Example 97, 3-Ethoxymethyl-1-ethyl-5-phenyl-6,7-dihydro-1H-pyrazolo-[4,3-e][1,4]diazepin-8-one], the half-maximal inhibitory concentration (IC50) in series [1] came out at 1580 nM.
